In PubChem BioAssay AID328 (DTP/NCI, 2004):
Toxic doses and inconclusive results are not listed.

System: BDF1 mice, P388 leukemia ip, median survival T/C
Test: NCI In Vivo Anticancer Drug Screen. Data for tumor model P388 Leukemia (intraperitoneal) in B6D2F1 (BDF1) mice
Conditions: endpoint: median survival time, higher = longer survival
Method in brief: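 In tumour-bearing mice, survival after compound treatment is set against the vehicle group and given as a quotient.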

[1] = dose: 12.5 mg/kg/injection, schedule: Q01DX009 (ip), vehicle: saline
[2] = dose: 25.0 mg/kg/injection, schedule: Q04DX003 (ip), vehicle: saline
[3] = dose: 50.0 mg/kg/injection, schedule: Q04DX003 (ip), vehicle: saline
[4] = dose: 100.0 mg/kg/injection, schedule: Q04DX003 (ip), vehicle: saline
[5] = dose: 12.5 mg/kg/injection, schedule: Q04DX003 (ip), vehicle: saline

For `O=C(O)/C=C\c1c[nH]c2nccnc12`, the T/C [1] was 103 % of control, the T/C (dose: 25.0 mg/kg/injection, schedule: Q01DX009 (ip), vehicle: saline) was 95 % of control and the T/C [2] was 97 % of control. The T/C (dose: 50.0 mg/kg/injection, schedule: Q01DX009 (ip), vehicle: saline) was 95 % of control and the T/C [3] was 100 % of control.
In the case of `COC(OC)c1nc(SC)[nH]c(=O)c1C`, the T/C (dose: 100.0 mg/kg/injection, schedule: Q01DX009 (ip), vehicle: saline with Tween-80) was 91 % of control, the T/C (dose: 100.0 mg/kg/injection, schedule: Q04DX003 (ip), vehicle: saline with Tween-80) was 100 % of control and the T/C (dose: 200.0 mg/kg/injection, schedule: Q01DX009 (ip), vehicle: saline with Tween-80) was 95 % of control. For the same compound, the T/C (dose: 200.0 mg/kg/injection, schedule: Q04DX003 (ip), vehicle: saline with Tween-80) was 100 % of control and the T/C (dose: 400.0 mg/kg/injection, schedule: Q04DX003 (ip), vehicle: saline with Tween-80) was 95 % of control.
With `CC[NH-].CC[NH-].[I][Pt+2][I]` the T/C (dose: 3.12 mg/kg/injection, schedule: Q01DX009 (ip), vehicle: saline) was 190 % of control and the T/C (dose: 6.25 mg/kg/injection, schedule: Q01DX009 (ip), vehicle: saline) was 185 % of control.
With `Cc1ccc2ccccc2c1NCCC(=O)O` the T/C (dose: 100.0 mg/kg/injection, schedule: Q01DX001 (ip), vehicle: Klucel (hydroxypropylcellulose) (HPC)) was 103 % of control, the T/C (dose: 200.0 mg/kg/injection, schedule: Q01DX001 (ip), vehicle: Klucel (hydroxypropylcellulose) (HPC)) was 96 % of control and the T/C (dose: 400.0 mg/kg/injection, schedule: Q01DX001 (ip), vehicle: Klucel (hydroxypropylcellulose) (HPC)) was 100 % of control.
For `CC(=O)C1=CC2(OC3CCC(O)(C(=O)CO)C(C)O3)C(=O)c3c(cc4cccc(O)c4c3O)CC2C(O)C1O` (centres undefined), the T/C (dose: 19.0 mg/kg/injection, schedule: Q01DX010 (ip), vehicle: carboxymethylcellulose (CMC)) was 100 % of control, the T/C (dose: 38.0 mg/kg/injection, schedule: Q01DX010 (ip), vehicle: carboxymethylcellulose (CMC)) was 100 % of control and the T/C (dose: 75.0 mg/kg/injection, schedule: Q01DX010 (ip), vehicle: carboxymethylcellulose (CMC)) was 104 % of control. For the same compound, the T/C (dose: 150.0 mg/kg/injection, schedule: Q01DX010 (ip), vehicle: carboxymethylcellulose (CMC)) was 104 % of control.
For `NC(=Nc1ccc(Cl)cc1)/N=C(/N)N1CCN(/C(N)=N/C(N)=Nc2ccc(Cl)cc2)CC1`, the T/C [1] was 120 % of control, the T/C (dose: 16.5 mg/kg/injection, schedule: Q01DX009 (ip), vehicle: saline) was 116 % of control and the T/C (dose: 25.0 mg/kg/injection, schedule: Q01DX001 (ip), vehicle: saline) was 104 % of control. The T/C (dose: 37.5 mg/kg/injection, schedule: Q01DX009 (ip), vehicle: saline) was 150 % of control, the T/C (dose: 50.0 mg/kg/injection, schedule: Q01DX001 (ip), vehicle: saline) was 113 % of control and the T/C [3] was 100 % of control. The T/C (dose: 100.0 mg/kg/injection, schedule: Q01DX001 (ip), vehicle: saline) was 109 % of control, the T/C [4] was 115 % of control and the T/C (dose: 150.0 mg/kg/injection, schedule: Q01DX001 (ip), vehicle: Klucel (hydroxypropylcellulose) (HPC)) was 116 % of control.
For `C[N+]1(C)CCCC1`, the T/C (dose: 6.25 mg/kg/injection, schedule: Q04DX003 (ip), vehicle: saline) was 100 % of control and the T/C [5] was 100 % of control.
In the case of `CCCN1CCN(c2ccc([N+](=O)[O-])c3no[n+]([O-])c23)CC1`, the T/C (dose: 2.5 mg/kg/injection, schedule: Q01DX009 (ip), vehicle: saline with Tween-80) was 122 % of control and the T/C (dose: 10.0 mg/kg/injection, schedule: Q01DX009 (ip), vehicle: saline with Tween-80) was 155 % of control.
For `CCC1CCCCN1C` (centres undefined), the T/C [5] was 100 % of control, the T/C [2] was 90 % of control and the T/C [3] was 90 % of control.
In the case of `CC(O)C(C)(C)CO` (centres undefined), the T/C [4] was 100 % of control, the T/C (dose: 200.0 mg/kg/injection, schedule: Q04DX003 (ip), vehicle: saline) was 100 % of control and the T/C (dose: 400.0 mg/kg/injection, schedule: Q04DX003 (ip), vehicle: saline) was 100 % of control.
With `CC1CCc2c(ccc3ccccc23)C1=O` (centres undefined) the T/C (dose: 100.0 mg/kg/injection, schedule: Q01DX009 (ip), vehicle: gum acacia) was 92 % of control, the T/C (dose: 100.0 mg/kg/injection, schedule: Q04DX003 (ip), vehicle: gum acacia) was 107 % of control and the T/C (dose: 200.0 mg/kg/injection, schedule: Q01DX009 (ip), vehicle: gum acacia) was 100 % of control. The T/C (dose: 200.0 mg/kg/injection, schedule: Q04DX003 (ip), vehicle: gum acacia) was 103 % of control, the T/C (dose: 400.0 mg/kg/injection, schedule: Q01DX009 (ip), vehicle: gum acacia) was 100 % of control and the T/C (dose: 400.0 mg/kg/injection, schedule: Q04DX003 (ip), vehicle: gum acacia) was 89 % of control.
